Reference: the NIST ThermoML archive (doi:10.1016/j.jct.2016.10.047)
Numbers after ± are expanded uncertainties.

Assays:
[1] = refractive index (other wavelength) (dimensionless); xn = mol fraction of the nth substance listed; conditions: 94 kPa, Liquid, Wavelength=632.8 nm, minimum deviation method, x2 = 0
[2] = refractive index (other wavelength) (dimensionless); conditions: 94 kPa, Liquid, Wavelength=632.8 nm, minimum deviation method

CC(C)O [propan-2-ol] + CCCCCCCC[n+]1ccn(C)c1.F[P-](F)(F)(F)(F)F
[1]
Conditions	refractive index
298.21 K	1.3736 ± 0.0002
300.17 K	1.3728 ± 0.0002
302.2 K	1.3719 ± 0.0002
304.24 K	1.371 ± 0.0002
306.22 K	1.3701 ± 0.0002
308.22 K	1.3693 ± 0.0002
310.24 K	1.3684 ± 0.0002
312.2 K	1.3675 ± 0.0002

CC(C)O [propan-2-ol]
[2]
Conditions	refractive index
298.21 K	1.3736 ± 0.0002
300.17 K	1.3728 ± 0.0002
302.2 K	1.3719 ± 0.0002
304.24 K	1.371 ± 0.0002
306.22 K	1.3701 ± 0.0002
308.22 K	1.3693 ± 0.0002
310.24 K	1.3684 ± 0.0002
312.2 K	1.3675 ± 0.0002

CCCCCCCC[n+]1ccn(C)c1.F[P-](F)(F)(F)(F)F [1-octyl-3-methylimidazolium hexafluorophosphate]
[2]
Conditions	refractive index
298.19 K	1.4215 ± 0.0003
300.2 K	1.421 ± 0.0003
302.19 K	1.4204 ± 0.0003
304.2 K	1.4199 ± 0.0003
306.22 K	1.4193 ± 0.0003
308.24 K	1.4188 ± 0.0003
310.25 K	1.4183 ± 0.0003
312.24 K	1.4178 ± 0.0003
